Measurements published in ChEMBL document CHEMBL1201862, “PubChem BioAssay data set” (2004).
Values belong to the compound of their own block, whether it stands above or below them. Activity calls are given as the source filed them.

How the values were obtained:
Beta-galactosidase = Beta-galactosidase (Escherichia coli, UniProt Q8VNN2); assay: detection-enzyme interference by beta-gal modulators – biochemical, E. coli enzyme, set 3, artefact control for CCR6 antagonist project, dose response (AID 504712); type: functional
[1] = viability of uninfected HEp-2 cells – cell-based, HTS, cytotoxicity control for RSV inhibitor project, dose response (AID 2410); type: functional; conditions: human respiratory syncytial virus
[2] = target: T1, Voltage-gated N-type calcium channel alpha-1B subunit/Amyloid beta A4 precursor protein-binding family A member 1 (Homo sapiens, UniProt Q00975+Q02410); type: protein assay
[3] = target: T1, Voltage-gated N-type calcium channel alpha-1B subunit/Amyloid beta A4 precursor protein-binding family A member 1; type: protein assay; remark: listed apart in the source
[4] = target: Glyceraldehyde-3-phosphate dehydrogenase (Homo sapiens, UniProt P04406)
[5] = target: T2, Alkaline phosphatase, tissue-nonspecific isozyme (Homo sapiens, UniProt P05186); assay: potency against alkaline phosphatase TNAP – biochemical, luminescent, dose response, SAR follow-up (AID 1056)
T2 sequence (P05186 whole entry): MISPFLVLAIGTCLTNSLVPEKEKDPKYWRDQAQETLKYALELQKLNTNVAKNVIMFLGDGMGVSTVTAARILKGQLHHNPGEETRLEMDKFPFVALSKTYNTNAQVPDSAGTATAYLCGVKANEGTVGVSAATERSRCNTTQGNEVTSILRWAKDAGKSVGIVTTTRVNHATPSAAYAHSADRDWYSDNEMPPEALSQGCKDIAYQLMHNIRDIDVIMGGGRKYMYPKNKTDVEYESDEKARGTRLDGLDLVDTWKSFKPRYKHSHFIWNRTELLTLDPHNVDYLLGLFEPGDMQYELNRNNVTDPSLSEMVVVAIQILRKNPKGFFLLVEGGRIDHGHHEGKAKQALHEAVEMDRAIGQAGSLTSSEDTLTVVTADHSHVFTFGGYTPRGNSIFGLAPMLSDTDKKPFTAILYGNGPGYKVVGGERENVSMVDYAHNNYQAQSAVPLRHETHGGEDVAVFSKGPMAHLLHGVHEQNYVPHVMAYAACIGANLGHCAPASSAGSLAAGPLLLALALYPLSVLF

[6] = non-specific 3'UTR reporter inhibition in Clone20-Shn3RL – cell-based, Renilla luciferase, cherry-picked, counter-screen for Shn3 inhibitor project, dose response (AID 624133); type: functional
[7] = target: Glucose-6-phosphate 1-dehydrogenase (Homo sapiens, UniProt P11413); assay: inhibition of Homo sapiens G6PD, dose series – biochemical, fluorescence, selectivity assay for P. falciparum G6PD inhibitor project, dose response (AID 504792); type: functional
[8] = viability of PTEN-deleted HCT116 cells – cell-based, HCT116 PTEN knockout, dose response (AID 1047); type: functional;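 further: HCT116 colon tumor cells with PTEN knocked out; cells exposed to compound for 60 hours before readout; potency for loss of cell viability measured by luminescence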
[9] = loss of viability in HepG2 cells – cell-based, CellTiter-Glo, cherry-picked, cytotoxicity control for Shn3 inhibitor project, dose response (AID 624134); type: functional
[10] = viability of HCT116 lacking mutant beta-catenin – cell-based, human colon tumor, dose response (AID 1045); type: functional;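 further: HCT116 colon tumor cells with beta catenin knocked out; cells exposed to compound for 60 hours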
[11] = target: DNA dC->dU-editing enzyme APOBEC-3G (Homo sapiens, UniProt Q9HC16); assay: Dose Response confirmation of small molecule APOBEC3G DNA Deaminase Inhibitors via a fluorescence-based single-stranded DNA deaminase assay. [Related pubchem assays (depositor defined):AID493012, AID493028]; type: functional
[12] = reduction of Shn3 3'UTR-driven luciferase in osteoblasts – cell-based, Clone20 osteoblasts, firefly luciferase, cherry-picked, dose response (AID 624132); type: functional;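 further: firefly luciferase luminescence from reporter carrying the Shn3 3'UTR in osteoblasts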
[13] = target: T3, Ubiquitin-conjugating enzyme E2 N (Homo sapiens, UniProt P61088); type: functional
T3 sequence (P61088 whole entry): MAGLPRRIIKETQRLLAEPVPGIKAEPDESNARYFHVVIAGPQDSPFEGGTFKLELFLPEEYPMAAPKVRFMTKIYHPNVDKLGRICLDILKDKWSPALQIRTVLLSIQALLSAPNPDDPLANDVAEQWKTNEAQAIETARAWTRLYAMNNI

Bcl-2-related protein A1 = target: T4, Bcl-2-related protein A1 (Mus musculus, UniProt Q07440); type: functional;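 further: confirmatory dose–response counterscreen on Bfl-1, used to check hits from a UBC13 polyubiquitin inhibitor campaign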
T4 sequence (Q07440 whole entry): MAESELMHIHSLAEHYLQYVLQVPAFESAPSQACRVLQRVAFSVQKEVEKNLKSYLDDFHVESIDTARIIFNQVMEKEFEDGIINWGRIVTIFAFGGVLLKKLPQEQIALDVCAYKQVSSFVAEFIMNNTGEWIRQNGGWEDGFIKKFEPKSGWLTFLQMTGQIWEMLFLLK

[14] = target: T3, Ubiquitin-conjugating enzyme E2 N; type: functional; remark: listed apart in the source
Cytochrome P450 2C9 = Cytochrome P450 2C9 (Homo sapiens, UniProt P11712); conditions: Potency
Cytochrome P450 3A4 = Cytochrome P450 3A4 (Homo sapiens, UniProt P08684); conditions: Potency;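 further: confirmatory qHTS run detecting inhibitors and substrates of CYP3A4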
Estrogen receptor = target: T5, Estrogen receptor (Homo sapiens, UniProt P03372);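 further: potency for inhibiting coactivator peptide recruitment to the receptor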
T5 sequence (P03372 whole entry): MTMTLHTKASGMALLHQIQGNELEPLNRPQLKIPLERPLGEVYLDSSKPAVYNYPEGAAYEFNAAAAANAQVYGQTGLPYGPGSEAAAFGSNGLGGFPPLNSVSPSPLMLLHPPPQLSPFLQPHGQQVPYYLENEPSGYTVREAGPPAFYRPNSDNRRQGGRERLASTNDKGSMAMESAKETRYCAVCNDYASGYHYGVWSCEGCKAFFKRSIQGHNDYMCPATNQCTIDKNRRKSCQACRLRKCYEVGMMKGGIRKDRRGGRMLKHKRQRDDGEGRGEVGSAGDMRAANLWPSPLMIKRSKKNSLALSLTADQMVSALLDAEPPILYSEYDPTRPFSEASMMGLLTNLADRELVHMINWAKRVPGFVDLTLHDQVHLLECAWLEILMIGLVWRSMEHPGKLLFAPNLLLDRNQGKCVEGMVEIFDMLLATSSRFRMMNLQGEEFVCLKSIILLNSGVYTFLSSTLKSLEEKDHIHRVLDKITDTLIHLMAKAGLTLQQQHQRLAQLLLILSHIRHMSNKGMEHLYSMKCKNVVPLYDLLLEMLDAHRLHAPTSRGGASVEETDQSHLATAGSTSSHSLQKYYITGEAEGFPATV

T1 sequence (Q00975 whole entry): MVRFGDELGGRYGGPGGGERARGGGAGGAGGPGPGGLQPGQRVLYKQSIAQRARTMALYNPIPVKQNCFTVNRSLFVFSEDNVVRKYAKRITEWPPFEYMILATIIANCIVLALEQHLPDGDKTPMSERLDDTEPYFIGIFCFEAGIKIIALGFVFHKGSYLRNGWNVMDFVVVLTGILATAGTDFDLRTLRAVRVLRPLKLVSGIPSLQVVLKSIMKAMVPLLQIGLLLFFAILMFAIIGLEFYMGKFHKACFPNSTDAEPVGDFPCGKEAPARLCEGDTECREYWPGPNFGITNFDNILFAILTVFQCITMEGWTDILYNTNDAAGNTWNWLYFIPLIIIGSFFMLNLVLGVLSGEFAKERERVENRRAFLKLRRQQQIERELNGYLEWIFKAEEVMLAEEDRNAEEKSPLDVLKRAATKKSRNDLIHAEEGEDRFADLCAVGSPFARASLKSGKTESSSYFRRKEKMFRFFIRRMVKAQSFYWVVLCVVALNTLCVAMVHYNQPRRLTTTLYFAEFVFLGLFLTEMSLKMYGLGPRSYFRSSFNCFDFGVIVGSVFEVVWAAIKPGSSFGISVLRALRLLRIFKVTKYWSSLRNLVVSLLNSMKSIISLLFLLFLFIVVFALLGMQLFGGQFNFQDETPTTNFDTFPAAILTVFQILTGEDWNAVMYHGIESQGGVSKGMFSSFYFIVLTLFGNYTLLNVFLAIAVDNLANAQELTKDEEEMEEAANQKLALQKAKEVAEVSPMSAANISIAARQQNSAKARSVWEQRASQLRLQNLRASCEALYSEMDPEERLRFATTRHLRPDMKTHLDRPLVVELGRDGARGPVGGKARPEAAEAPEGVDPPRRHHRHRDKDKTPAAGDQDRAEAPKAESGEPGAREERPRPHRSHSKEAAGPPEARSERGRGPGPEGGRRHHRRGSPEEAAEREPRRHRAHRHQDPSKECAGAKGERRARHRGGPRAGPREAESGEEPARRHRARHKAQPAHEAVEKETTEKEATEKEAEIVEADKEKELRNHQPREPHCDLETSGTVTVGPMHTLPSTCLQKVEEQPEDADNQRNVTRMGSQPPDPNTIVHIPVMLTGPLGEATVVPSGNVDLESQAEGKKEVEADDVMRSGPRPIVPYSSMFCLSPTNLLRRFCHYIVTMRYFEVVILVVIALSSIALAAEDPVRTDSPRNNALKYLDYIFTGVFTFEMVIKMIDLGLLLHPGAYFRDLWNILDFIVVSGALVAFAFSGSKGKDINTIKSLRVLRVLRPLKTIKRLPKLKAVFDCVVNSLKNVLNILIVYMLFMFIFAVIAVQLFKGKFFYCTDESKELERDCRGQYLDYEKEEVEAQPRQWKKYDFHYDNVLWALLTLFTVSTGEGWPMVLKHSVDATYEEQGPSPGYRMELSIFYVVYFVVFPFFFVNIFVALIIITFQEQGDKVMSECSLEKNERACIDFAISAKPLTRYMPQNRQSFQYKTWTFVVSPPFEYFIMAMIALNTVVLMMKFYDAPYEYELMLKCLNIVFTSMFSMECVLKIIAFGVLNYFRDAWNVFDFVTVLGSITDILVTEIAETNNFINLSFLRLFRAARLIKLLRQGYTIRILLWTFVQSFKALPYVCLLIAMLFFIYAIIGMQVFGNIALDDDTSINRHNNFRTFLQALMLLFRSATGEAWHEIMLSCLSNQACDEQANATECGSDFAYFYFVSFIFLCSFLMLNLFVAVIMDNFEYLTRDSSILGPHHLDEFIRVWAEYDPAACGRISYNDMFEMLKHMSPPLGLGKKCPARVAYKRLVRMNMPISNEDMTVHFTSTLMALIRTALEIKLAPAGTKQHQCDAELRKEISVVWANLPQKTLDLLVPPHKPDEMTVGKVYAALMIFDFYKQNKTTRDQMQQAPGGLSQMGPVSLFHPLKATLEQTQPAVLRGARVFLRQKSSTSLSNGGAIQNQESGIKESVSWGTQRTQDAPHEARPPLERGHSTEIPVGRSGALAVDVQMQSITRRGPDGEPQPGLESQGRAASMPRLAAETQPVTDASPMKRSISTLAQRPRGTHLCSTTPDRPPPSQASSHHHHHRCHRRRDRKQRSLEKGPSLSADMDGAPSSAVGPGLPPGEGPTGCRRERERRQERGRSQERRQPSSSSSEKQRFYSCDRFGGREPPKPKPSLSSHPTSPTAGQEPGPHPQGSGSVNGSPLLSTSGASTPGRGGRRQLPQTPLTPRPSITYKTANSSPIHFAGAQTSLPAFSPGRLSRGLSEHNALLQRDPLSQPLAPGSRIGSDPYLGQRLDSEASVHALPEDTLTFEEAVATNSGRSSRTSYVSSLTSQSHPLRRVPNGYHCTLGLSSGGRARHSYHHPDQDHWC
T1 sequence (Q02410 whole entry): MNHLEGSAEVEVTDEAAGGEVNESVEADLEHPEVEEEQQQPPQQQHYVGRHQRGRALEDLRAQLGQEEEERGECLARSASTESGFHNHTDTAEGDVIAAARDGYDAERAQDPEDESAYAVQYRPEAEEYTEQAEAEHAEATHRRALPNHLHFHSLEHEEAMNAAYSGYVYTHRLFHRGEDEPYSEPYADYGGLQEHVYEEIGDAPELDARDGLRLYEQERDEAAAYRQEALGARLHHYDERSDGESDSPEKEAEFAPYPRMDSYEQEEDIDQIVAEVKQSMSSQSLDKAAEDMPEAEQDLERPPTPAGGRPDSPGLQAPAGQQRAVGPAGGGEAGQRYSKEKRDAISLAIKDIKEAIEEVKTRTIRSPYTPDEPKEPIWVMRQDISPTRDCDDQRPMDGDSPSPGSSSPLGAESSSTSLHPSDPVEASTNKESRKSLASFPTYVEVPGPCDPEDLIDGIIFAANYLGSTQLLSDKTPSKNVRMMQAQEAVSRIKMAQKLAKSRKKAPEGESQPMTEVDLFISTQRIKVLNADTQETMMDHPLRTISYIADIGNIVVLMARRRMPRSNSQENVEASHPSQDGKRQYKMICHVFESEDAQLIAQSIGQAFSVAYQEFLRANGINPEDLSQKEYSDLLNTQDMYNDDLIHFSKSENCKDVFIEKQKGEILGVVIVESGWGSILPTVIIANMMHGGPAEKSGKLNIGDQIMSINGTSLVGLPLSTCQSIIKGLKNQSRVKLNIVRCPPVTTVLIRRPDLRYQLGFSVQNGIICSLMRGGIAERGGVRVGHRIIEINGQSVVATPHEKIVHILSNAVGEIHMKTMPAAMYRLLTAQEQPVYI
Chain of Cytochrome P450 3A4 (P08684 whole entry): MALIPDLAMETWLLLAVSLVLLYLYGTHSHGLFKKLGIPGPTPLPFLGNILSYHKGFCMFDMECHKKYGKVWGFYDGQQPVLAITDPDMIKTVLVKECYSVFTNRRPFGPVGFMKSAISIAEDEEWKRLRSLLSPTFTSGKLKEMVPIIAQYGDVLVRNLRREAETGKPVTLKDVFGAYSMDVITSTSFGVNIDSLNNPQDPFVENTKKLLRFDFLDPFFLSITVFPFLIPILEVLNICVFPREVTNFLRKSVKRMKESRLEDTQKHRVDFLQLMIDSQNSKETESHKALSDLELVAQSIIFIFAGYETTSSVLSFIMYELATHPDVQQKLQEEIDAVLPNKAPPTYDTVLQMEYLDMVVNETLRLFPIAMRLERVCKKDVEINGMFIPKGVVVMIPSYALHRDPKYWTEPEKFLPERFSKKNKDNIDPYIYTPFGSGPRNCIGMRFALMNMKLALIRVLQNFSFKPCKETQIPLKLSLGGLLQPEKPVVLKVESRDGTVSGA
Chain of Beta-galactosidase (Q8VNN2 whole entry): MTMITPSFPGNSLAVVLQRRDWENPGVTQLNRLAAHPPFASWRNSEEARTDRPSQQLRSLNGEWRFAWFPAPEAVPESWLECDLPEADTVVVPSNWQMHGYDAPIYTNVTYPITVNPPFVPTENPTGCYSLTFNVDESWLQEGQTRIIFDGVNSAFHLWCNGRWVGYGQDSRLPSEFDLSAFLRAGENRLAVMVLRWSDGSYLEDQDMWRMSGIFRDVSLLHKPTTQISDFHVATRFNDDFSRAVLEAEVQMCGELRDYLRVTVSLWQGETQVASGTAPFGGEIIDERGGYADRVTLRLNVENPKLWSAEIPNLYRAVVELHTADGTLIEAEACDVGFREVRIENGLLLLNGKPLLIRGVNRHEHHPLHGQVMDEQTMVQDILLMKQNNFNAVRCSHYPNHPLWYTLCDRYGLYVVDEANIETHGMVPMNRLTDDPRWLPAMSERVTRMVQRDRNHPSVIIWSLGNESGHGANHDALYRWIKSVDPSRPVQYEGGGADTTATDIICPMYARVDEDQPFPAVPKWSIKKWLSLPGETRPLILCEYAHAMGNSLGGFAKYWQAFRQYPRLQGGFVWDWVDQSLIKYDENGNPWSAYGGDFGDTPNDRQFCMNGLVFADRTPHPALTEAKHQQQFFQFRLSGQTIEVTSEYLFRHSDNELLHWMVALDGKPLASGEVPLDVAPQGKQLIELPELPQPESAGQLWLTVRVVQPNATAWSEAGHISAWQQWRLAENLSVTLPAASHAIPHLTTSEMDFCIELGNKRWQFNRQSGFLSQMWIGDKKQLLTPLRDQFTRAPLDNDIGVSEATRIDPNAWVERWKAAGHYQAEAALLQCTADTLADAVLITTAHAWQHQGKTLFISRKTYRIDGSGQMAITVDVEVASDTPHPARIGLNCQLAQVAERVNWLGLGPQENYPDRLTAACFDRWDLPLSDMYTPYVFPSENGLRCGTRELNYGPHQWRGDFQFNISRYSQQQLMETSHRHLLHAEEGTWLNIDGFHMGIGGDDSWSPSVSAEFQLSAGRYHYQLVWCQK
Chain of Glyceraldehyde-3-phosphate dehydrogenase (P04406 whole entry): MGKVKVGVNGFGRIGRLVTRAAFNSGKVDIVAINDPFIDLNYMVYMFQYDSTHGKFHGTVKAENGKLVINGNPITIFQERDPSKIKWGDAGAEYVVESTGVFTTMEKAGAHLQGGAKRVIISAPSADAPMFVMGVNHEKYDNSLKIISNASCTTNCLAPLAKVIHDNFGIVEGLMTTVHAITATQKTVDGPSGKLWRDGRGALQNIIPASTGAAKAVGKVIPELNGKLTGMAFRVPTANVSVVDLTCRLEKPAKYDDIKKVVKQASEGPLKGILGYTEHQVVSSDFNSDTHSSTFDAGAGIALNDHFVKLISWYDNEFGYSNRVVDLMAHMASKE

- IC50 (Beta-galactosidase): > 66.6 µM (inactive)
SMILES: O=[N+]([O-])c1ccc(N/N=C/c2cccc(O)c2O)cc1

SMILES: O=S(=O)(c1ccccc1F)N1CCC(c2nc(O)c3nnn(Cc4ccc5c(c4)OCCO5)c3n2)CC1
- CC50 [1]: > 50 µM (active)
- IC50 (cells): 45.3 µM (active)

- IC50 [2]: > 50 µM (inactive)
- IC50 [3]: 28.4 µM (active)
SMILES: CCOC(=O)N1CCN(C(=O)CCN2C(=O)/C(=C\c3cccc(OC)c3)SC2=S)CC1

- IC50 [4]: > 100 µM (not active)
- IC50 [5]: > 100 µM (inactive)
SMILES: COc1ccccc1NS(=O)(=O)c1ccc(OC)c2ncccc12

SMILES: CCOC(=O)C1CCCN(C(=O)Cn2sc3nc(C)cc(C)c3c2=O)C1 (centres undefined)
- AC50 [6]: 7.5 µM (active)
- IC50 [7]: 47.1 µM (inactive)
- EC50 [8]: 25.9 µM (active)
- AC50 [9]: > 70 µM (inactive)
- EC50 [10]: 21.6 µM (active)
- IC50 [2]: > 50 µM (inactive)
- IC50 [11]: 6.17 µM (active)
- IC50 [3]: 12.6 µM (active)
- AC50 [12]: 12.5 µM (active)

- IC50 [4]: > 100 µM (not active)
- IC50 [5]: > 100 µM (inactive)
SMILES: CCOC(=O)c1cc(-c2cccc(C(F)(F)F)c2)n[nH]1

- IC50 [13]: 14.5 µM (active)
- IC50 (Bcl-2-related protein A1): > 20 µM (inactive)
- IC50 [14]: 12.5 µM (active)
SMILES: CC(C)CC(C(=O)NC(C)(C)C)N(Cc1ccccc1Cl)C(=O)c1snc(C(N)=O)c1N (centres undefined)

- AC50 (Cytochrome P450 2C9): 31.6 µM (inconclusive)
- AC50 (Cytochrome P450 3A4): 31.6 µM (inconclusive)
SMILES: O=c1cc(-c2ccccc2O)oc2ccc3ccccc3c12

- IC50 (Estrogen receptor): 23.7 µM (active)
SMILES: CSc1ccc(S(=O)(=O)Nc2cccc(F)c2)cc1

- IC50 (Beta-galactosidase): > 66.6 µM (inactive)
SMILES: CCCOc1ccc(CN(CCC#N)C(=S)NC(=O)c2ccccc2)cc1

- AC50 (Cytochrome P450 2C9): 1 µM (inconclusive)
- AC50 (Cytochrome P450 3A4): 3.98 µM (inconclusive)
SMILES: COC(=O)NC(/C(C(=O)OC)=C(\C)NCc1ccccc1)c1ccc2ccccc2c1 (centres undefined)

SMILES: COc1cc(-c2nnc(SCc3c(F)cccc3Cl)o2)cc(OC)c1OC
- CC50 [1]: 29.9 µM (active)
- IC50 (cells): 9.1 µM (active)
